According to ChEMBL document CHEMBL1148336, “3-Aminopyrazole inhibitors of CDK2/cyclin A as antitumor agents. 1. Lead finding” (J Med Chem, 2004):

Columns and labels:
[1] = target: Cyclin-dependent kinase 2/cyclin A (Homo sapiens, UniProt P24941); assay: In vitro inhibitory concentration against cyclin-dependent kinase 2-cyclin A complex using ATP/P33gamma-ATP mix as radioligand; format: protein-complex assay
A2780 = assay: Antiproliferative activity against human A2780 cells; format: functional, cell-based

IC50 [1] [nM] | IC50 (A2780) [nM] | Structure (SMILES)
> 10000 |  | CC(C)(C)c1cc(NC(=O)c2ccc(Br)cc2)n[nH]1
90 |  | O=C(Nc1cc(C2CCC2)[nH]n1)c1ccc(Br)cc1
83 |  | O=C(Nc1cc(C2CC2)[nH]n1)c1ccc(Cl)c(Cl)c1
48 | 1400 | O=C(Cc1ccccc1)Nc1cc(C2CC2)[nH]n1
200 |  | CC(C)c1cc(NC(=O)c2ccc(Br)cc2)n[nH]1
> 10000 |  | CCC(C)c1cc(NC(=O)c2ccc(Br)cc2)[nH]n1 (stereo not given)
 | 900 | O=C(Cc1cccc2ccccc12)Nc1cc(C2CC2)[nH]n1
4 | 1470 | NC(=O)c1ccc(-c2ccc(CC(=O)Nc3cc(C4CC4)[nH]n3)cc2)cc1
1500 |  | Cc1cc(NC(=O)c2ccccc2)n[nH]1
500 |  | O=C(Nc1cc(C2CC2)[nH]n1)c1cccc(C(F)(F)F)c1
 | > 20000 | COc1cccc(CC(=O)Nc2cc(C3CC3)[nH]n2)c1
600 |  | COc1cccc(C(=O)Nc2cc(C3CC3)n[nH]2)c1
4 | 182 | O=C(Cc1ccc(-c2cccc(F)c2)cc1)Nc1cc(C2CC2)[nH]n1
> 10000 |  | O=C(Nc1cc(C2CC2)[nH]n1)c1c(Cl)cccc1Cl
650 |  | CCCc1cc(NC(=O)c2ccc(Br)cc2)n[nH]1
1000 |  | O=C(Nc1cc(C2CCCCC2)[nH]n1)c1ccc(Br)cc1
> 10000 |  | O=C(Nc1cc(-c2ccccc2)[nH]n1)c1ccc(Br)cc1
> 10000 |  | CCCC(=O)Nc1cc(C)[nH]n1
9 | 205 | Cc1cccc(-c2ccc(CC(=O)Nc3cc(C4CC4)[nH]n3)cc2)c1
> 10000 |  | COc1ccccc1C(=O)Nc1cc(C2CC2)[nH]n1
 | 111 | O=C(Cc1ccc(-c2ccccc2)cc1)Nc1cc(C2CC2)[nH]n1
74 | 2840 | NC(=O)c1ccc(CC(=O)Nc2cc(C3CC3)[nH]n2)cc1
 | 6980 | O=C(Cc1ccc(OCCN2CCCC2)cc1)Nc1cc(C2CC2)[nH]n1
34 |  | O=C(Nc1cc(C2CC2)[nH]n1)c1ccc(Br)cc1
> 10000 |  | O=C(Nc1cc(Cc2ccccc2)[nH]n1)c1ccc(Br)cc1
1000 |  | O=C(Nc1cc(C2CC2)[nH]n1)c1cccc(Cl)c1
50 |  | O=C(Nc1cc(C2CCCC2)[nH]n1)c1ccc(Br)cc1
11 | > 20000 | O=C(Cc1ccc(-c2ccc(C(=O)O)cc2)cc1)Nc1cc(C2CC2)[nH]n1
705 |  | COc1ccc(C(=O)Nc2cc(C3CC3)[nH]n2)cc1
